{"source": "PubChem BioAssay (NCI)", "assay_in_all_cases": "NCI-60 cell line screen, 384-well format", "key": {"[1]": {"test_system": "OVCAR-3 ovarian"}, "[2]": {"test_system": "HCC-2998 colon"}, "[3]": {"test_system": "MDA-MB-468 breast"}, "[4]": {"test_system": "SR leukemia"}, "[5]": {"test_system": "UACC-62 melanoma"}, "[6]": {"test_system": "NCI-H226 lung"}, "[7]": {"test_system": "HL-60(TB) leukemia"}, "[8]": {"test_system": "SW-620 colon"}, "[9]": {"test_system": "NCI/ADR-RES ovarian"}, "[10]": {"test_system": "RXF 393 renal"}, "[11]": {"test_system": "ACHN renal"}, "[12]": {"test_system": "HOP-62 NSCLC"}, "[13]": {"test_system": "T-47D breast"}}, "note": "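GI50 marks 50% less growth. TGI denotes the concentration required for complete inhibition of growth.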", "data": [{"smiles": "Cc1cc2c(C(C)C)c(O)c(O)c(C=O)c2c(O)c1-c1c(C)cc2c(C(C)C)c(O)c(O)c(C=O)c2c1O", "note": "(tested in a mixture with another compound)", "values": [{"measurement": "GI50", "setting": "[1]", "value": 1590, "unit": "nM"}, {"measurement": "TGI", "setting": "[1]", "value": 3460, "unit": "nM"}, {"measurement": "GI50", "setting": "[2]", "value": 2320, "unit": "nM"}, {"measurement": "TGI", "setting": "[2]", "value": 4700, "unit": "nM"}, {"measurement": "GI50", "setting": "[3]", "value": 1680, "unit": "nM"}, {"measurement": "TGI", "setting": "[3]", "value": 3290, "unit": "nM"}, {"measurement": "GI50", "setting": "[4]", "value": 1800, "unit": "nM"}, {"measurement": "TGI", "setting": "[4]", "value": 3210, "unit": "nM"}, {"measurement": "GI50", "setting": "[5]", "value": 1810, "unit": "nM"}, {"measurement": "TGI", "setting": "[5]", "value": 3250, "unit": "nM"}, {"measurement": "GI50", "setting": "[6]", "value": 1630, "unit": "nM"}, {"measurement": "TGI", "setting": "[6]", "value": 3030, "unit": "nM"}, {"measurement": "GI50", "setting": "[7]", "value": 1690, "unit": "nM"}, {"measurement": "TGI", "setting": "[7]", "value": 3090, "unit": "nM"}, {"measurement": "GI50", "setting": "[8]", "value": 2070, "unit": "nM"}, {"measurement": "TGI", "setting": "[8]", "value": 3980, "unit": "nM"}, {"measurement": "GI50", "setting": "[9]", "value": 1830, "unit": "nM"}, {"measurement": "TGI", "setting": "[9]", "value": 3320, "unit": "nM"}, {"measurement": "GI50", "setting": "[10]", "value": 604, "unit": "nM"}, {"measurement": "TGI", "setting": "[10]", "value": 1960, "unit": "nM"}, {"measurement": "GI50", "setting": "[11]", "value": 2050, "unit": "nM"}, {"measurement": "TGI", "setting": "[11]", "value": 4660, "unit": "nM"}, {"measurement": "GI50", "setting": "[12]", "value": 2240, "unit": "nM"}, {"measurement": "TGI", "setting": "[12]", "value": 3900, "unit": "nM"}, {"measurement": "GI50", "setting": "[13]", "value": 1700, "unit": "nM"}, {"measurement": "TGI", "setting": "[13]", "value": 3410, "unit": "nM"}]}]}
